Laboratory results as given in PubChem BioAssay (NCI).
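Interpolation was linear, between the two tested concentrations surrounding the appropriate level; five concentrations were tested over 48 hours in 96-well plates. Abbreviation: GI50, concentration required for 50% inhibition of growth. TGI: concentration producing complete growth inhibition.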

What was measured:
Test in all cases: NCI anticancer screen, dose series, 48 h
COLO 205 colon = test system: COLO 205 colon
IGROV1 ovarian = test system: IGROV1 ovarian
OVCAR-4 ovarian = test system: OVCAR-4 ovarian
OVCAR-5 ovarian = test system: OVCAR-5 ovarian
OVCAR-8 ovarian = test system: OVCAR-8 ovarian
SF-268 CNS = test system: SF-268 CNS
SF-539 CNS = test system: SF-539 CNS
SNB-75 CNS = test system: SNB-75 CNS
U251 CNS = test system: U251 CNS
UACC-62 melanoma = test system: UACC-62 melanoma

Cc1cccc2c(N=Nc3ccc(S(N)(=O)=O)cc3)c(O)[nH]c12
GI50 (COLO 205 colon): > 25 µM
TGI (COLO 205 colon): > 25 µM
GI50 (IGROV1 ovarian): > 25 µM
TGI (IGROV1 ovarian): > 25 µM
GI50 (OVCAR-4 ovarian): > 25 µM
TGI (OVCAR-4 ovarian): > 25 µM
GI50 (OVCAR-5 ovarian): > 25 µM
TGI (OVCAR-5 ovarian): > 25 µM
GI50 (OVCAR-8 ovarian): > 25 µM
TGI (OVCAR-8 ovarian): > 25 µM
GI50 (SF-268 CNS): > 25 µM
TGI (SF-268 CNS): > 25 µM
GI50 (SF-539 CNS): > 25 µM
TGI (SF-539 CNS): > 25 µM
GI50 (SNB-75 CNS): > 25 µM
TGI (SNB-75 CNS): > 25 µM
GI50 (U251 CNS): > 25 µM
TGI (U251 CNS): > 25 µM
GI50 (UACC-62 melanoma): > 25 µM
TGI (UACC-62 melanoma): > 25 µM

O=C(O)c1ccc2c(c1Nc1ccccc1)C(=O)c1ccccc1C2=O
GI50 (COLO 205 colon): 38.9 µM
TGI (COLO 205 colon): > 100 µM
GI50 (IGROV1 ovarian): 16.2 µM
TGI (IGROV1 ovarian): > 100 µM
GI50 (OVCAR-4 ovarian): 86.1 µM
TGI (OVCAR-4 ovarian): > 100 µM
GI50 (OVCAR-5 ovarian): > 100 µM
TGI (OVCAR-5 ovarian): > 100 µM
GI50 (OVCAR-8 ovarian): 72.6 µM
TGI (OVCAR-8 ovarian): > 100 µM
GI50 (SF-268 CNS): 34.6 µM
TGI (SF-268 CNS): > 100 µM
GI50 (SF-539 CNS): 56.2 µM
TGI (SF-539 CNS): > 100 µM
GI50 (SNB-75 CNS): 46.7 µM
TGI (SNB-75 CNS): > 100 µM
GI50 (U251 CNS): 47 µM
TGI (U251 CNS): > 100 µM
GI50 (UACC-62 melanoma): 35.6 µM
TGI (UACC-62 melanoma): > 100 µM

N/C(=N\N=C\c1cccs1)NO
TGI (COLO 205 colon): > 100 µM
TGI (IGROV1 ovarian): > 100 µM
TGI (OVCAR-4 ovarian): > 100 µM
TGI (OVCAR-5 ovarian): > 100 µM
TGI (OVCAR-8 ovarian): > 100 µM
TGI (SF-268 CNS): > 100 µM
TGI (SF-539 CNS): > 100 µM
TGI (SNB-75 CNS): > 100 µM
TGI (U251 CNS): > 100 µM
TGI (UACC-62 melanoma): 51 µM

COc1cc(C#N)cc(OC)c1OCCOCCOc1c(OC)cc(C#N)cc1OC
GI50 (COLO 205 colon): 37.2 µM
TGI (COLO 205 colon): > 100 µM
GI50 (IGROV1 ovarian): 89.2 µM
TGI (IGROV1 ovarian): > 100 µM
GI50 (OVCAR-4 ovarian): 73.5 µM
TGI (OVCAR-4 ovarian): > 100 µM
GI50 (OVCAR-5 ovarian): > 100 µM
TGI (OVCAR-5 ovarian): > 100 µM
GI50 (OVCAR-8 ovarian): 51.3 µM
TGI (OVCAR-8 ovarian): > 100 µM
GI50 (SF-268 CNS): > 100 µM
TGI (SF-268 CNS): > 100 µM
GI50 (SF-539 CNS): > 100 µM
TGI (SF-539 CNS): > 100 µM
GI50 (SNB-75 CNS): > 100 µM
TGI (SNB-75 CNS): > 100 µM
GI50 (U251 CNS): > 100 µM
TGI (U251 CNS): > 100 µM
GI50 (UACC-62 melanoma): 33.1 µM
TGI (UACC-62 melanoma): > 100 µM

NC(CNO)C(=O)O (stereo not given)
TGI (COLO 205 colon): > 100 µM
TGI (IGROV1 ovarian): > 100 µM
TGI (OVCAR-4 ovarian): > 100 µM
TGI (OVCAR-5 ovarian): > 100 µM
TGI (OVCAR-8 ovarian): > 100 µM
TGI (SF-268 CNS): > 100 µM
TGI (SF-539 CNS): > 100 µM
TGI (SNB-75 CNS): > 100 µM
TGI (U251 CNS): > 100 µM
TGI (UACC-62 melanoma): > 100 µM

CCc1ccccc1NC(=O)CCc1n[nH]c(=S)o1
TGI (COLO 205 colon): > 100 µM
TGI (IGROV1 ovarian): > 100 µM
TGI (OVCAR-4 ovarian): > 100 µM
TGI (OVCAR-5 ovarian): > 100 µM
TGI (OVCAR-8 ovarian): > 100 µM
TGI (SF-268 CNS): > 100 µM
TGI (SF-539 CNS): > 100 µM
TGI (SNB-75 CNS): > 100 µM
TGI (U251 CNS): > 100 µM
TGI (UACC-62 melanoma): > 100 µM

Clc1cc(Cl)c(Cl)c(-c2nc(-c3cccnc3)cs2)c1
GI50 (COLO 205 colon): 13.6 µM
TGI (COLO 205 colon): 41.4 µM
GI50 (IGROV1 ovarian): 32.8 µM
TGI (IGROV1 ovarian): > 100 µM
GI50 (OVCAR-4 ovarian): 25.6 µM
TGI (OVCAR-4 ovarian): 98.8 µM
GI50 (OVCAR-5 ovarian): 32.3 µM
TGI (OVCAR-5 ovarian): 92.8 µM
GI50 (OVCAR-8 ovarian): 14.3 µM
TGI (OVCAR-8 ovarian): 66.5 µM
GI50 (SF-268 CNS): 17.9 µM
TGI (SF-268 CNS): 69.8 µM
GI50 (SF-539 CNS): 10.7 µM
TGI (SF-539 CNS): 25.4 µM
GI50 (SNB-75 CNS): 23 µM
TGI (SNB-75 CNS): 80.6 µM
GI50 (U251 CNS): 37.8 µM
TGI (U251 CNS): > 100 µM
GI50 (UACC-62 melanoma): 24 µM
TGI (UACC-62 melanoma): 73.3 µM

O=c1cc(-c2ccc(Cl)cc2)[nH]c2ncccc12
TGI (COLO 205 colon): 83 µM
TGI (IGROV1 ovarian): > 100 µM
TGI (OVCAR-4 ovarian): > 100 µM
TGI (OVCAR-5 ovarian): > 100 µM
TGI (OVCAR-8 ovarian): > 100 µM
TGI (SF-268 CNS): > 100 µM
TGI (SF-539 CNS): > 100 µM
TGI (SNB-75 CNS): > 100 µM
TGI (U251 CNS): > 100 µM
TGI (UACC-62 melanoma): > 100 µM

O=C(Nc1n[nH]c2nc(-c3ccco3)ccc12)C1CC1
GI50 (COLO 205 colon): > 25 µM
TGI (COLO 205 colon): > 25 µM
GI50 (IGROV1 ovarian): > 25 µM
TGI (IGROV1 ovarian): > 25 µM
GI50 (OVCAR-4 ovarian): > 25 µM
TGI (OVCAR-4 ovarian): > 25 µM
GI50 (OVCAR-5 ovarian): > 25 µM
TGI (OVCAR-5 ovarian): > 25 µM
GI50 (OVCAR-8 ovarian): > 25 µM
TGI (OVCAR-8 ovarian): > 25 µM
GI50 (SF-268 CNS): > 25 µM
TGI (SF-268 CNS): > 25 µM
GI50 (SF-539 CNS): > 25 µM
TGI (SF-539 CNS): > 25 µM
GI50 (SNB-75 CNS): > 25 µM
TGI (SNB-75 CNS): > 25 µM
GI50 (U251 CNS): > 25 µM
TGI (U251 CNS): > 25 µM
GI50 (UACC-62 melanoma): > 25 µM
TGI (UACC-62 melanoma): > 25 µM

CN(C)CCCN(c1nc(C(Cl)(Cl)Cl)ns1)c1nc(C(Cl)(Cl)Cl)ns1
GI50 (COLO 205 colon): 1.47 µM
TGI (COLO 205 colon): 2.85 µM
GI50 (IGROV1 ovarian): 2.27 µM
TGI (IGROV1 ovarian): 4.92 µM
GI50 (OVCAR-4 ovarian): 2.21 µM
TGI (OVCAR-4 ovarian): 5.58 µM
GI50 (OVCAR-5 ovarian): 1.82 µM
TGI (OVCAR-5 ovarian): 3.8 µM
GI50 (OVCAR-8 ovarian): 1.77 µM
TGI (OVCAR-8 ovarian): 3.52 µM
GI50 (SF-268 CNS): 3.12 µM
TGI (SF-268 CNS): 11.4 µM
GI50 (SF-539 CNS): 1.91 µM
TGI (SF-539 CNS): 3.8 µM
GI50 (SNB-75 CNS): 2.17 µM
TGI (SNB-75 CNS): 7.89 µM
GI50 (U251 CNS): 1.76 µM
TGI (U251 CNS): 3.22 µM
GI50 (UACC-62 melanoma): 2.1 µM
TGI (UACC-62 melanoma): 4.91 µM

CCCc1cc2cc(-n3nc(C)c4c3CC(C)(C)CC4=O)cc(NC3CCC(O)CC3)c2c(=O)[nH]1 (stereo not given)
GI50 (COLO 205 colon): 0.0775 µM
TGI (COLO 205 colon): 1.22 µM
GI50 (IGROV1 ovarian): 0.134 µM
TGI (IGROV1 ovarian): > 100 µM
GI50 (OVCAR-4 ovarian): > 39.6 µM
TGI (OVCAR-4 ovarian): > 100 µM
GI50 (OVCAR-5 ovarian): 0.626 µM
TGI (OVCAR-5 ovarian): > 100 µM
GI50 (OVCAR-8 ovarian): 0.519 µM
TGI (OVCAR-8 ovarian): > 100 µM
GI50 (SF-268 CNS): 1.8 µM
TGI (SF-268 CNS): > 100 µM
GI50 (SF-539 CNS): 0.782 µM
TGI (SF-539 CNS): > 100 µM
GI50 (SNB-75 CNS): 1.73 µM
TGI (SNB-75 CNS): 39.6 µM
GI50 (U251 CNS): 0.607 µM
TGI (U251 CNS): > 100 µM
GI50 (UACC-62 melanoma): 0.189 µM
TGI (UACC-62 melanoma): 5.39 µM

COc1ccc2c(c1)CCc1c(-c3noc4c3CCc3cc(OC)ccc3-4)noc1-2
TGI (COLO 205 colon): > 100 µM
TGI (IGROV1 ovarian): > 100 µM
TGI (OVCAR-4 ovarian): > 100 µM
TGI (OVCAR-5 ovarian): > 100 µM
TGI (OVCAR-8 ovarian): > 100 µM
TGI (SF-268 CNS): > 100 µM
TGI (SF-539 CNS): > 100 µM
TGI (SNB-75 CNS): > 100 µM
TGI (U251 CNS): > 100 µM
TGI (UACC-62 melanoma): > 100 µM

Cn1ncc2c(/N=C/c3cccs3)[nH]c(=S)nc21
GI50 (COLO 205 colon): 22.8 µM
TGI (COLO 205 colon): 65.7 µM
GI50 (IGROV1 ovarian): > 61.2 µM
TGI (IGROV1 ovarian): > 100 µM
GI50 (OVCAR-4 ovarian): > 59 µM
TGI (OVCAR-4 ovarian): > 100 µM
GI50 (OVCAR-5 ovarian): 54 µM
TGI (OVCAR-5 ovarian): > 100 µM
GI50 (OVCAR-8 ovarian): 57.5 µM
TGI (OVCAR-8 ovarian): > 100 µM
GI50 (SF-268 CNS): 26.2 µM
TGI (SF-268 CNS): > 94.6 µM
GI50 (SF-539 CNS): 32.2 µM
TGI (SF-539 CNS): > 100 µM
GI50 (SNB-75 CNS): > 63.7 µM
TGI (SNB-75 CNS): > 100 µM
GI50 (U251 CNS): 43.1 µM
TGI (U251 CNS): > 100 µM
GI50 (UACC-62 melanoma): 19.6 µM
TGI (UACC-62 melanoma): 52.4 µM

O=c1c2ccccc2nc(-c2ccc(Br)cc2)n1NC1OC(CO)C(O)C(O)C1O (stereo not given)
TGI (COLO 205 colon): > 100 µM
TGI (IGROV1 ovarian): > 100 µM
TGI (OVCAR-4 ovarian): > 100 µM
TGI (OVCAR-5 ovarian): > 100 µM
TGI (OVCAR-8 ovarian): > 100 µM
TGI (SF-268 CNS): > 100 µM
TGI (SF-539 CNS): > 100 µM
TGI (SNB-75 CNS): > 100 µM
TGI (U251 CNS): > 100 µM
TGI (UACC-62 melanoma): > 100 µM
